From patent US20190161516A1, “PROTEASOME INHIBITORS” (University of Kentucky Research Foundation, priority 2017, published 2019)

Experiments:
LMP2/β1i [1] = target: T1, LMP2/β1i (Homo sapiens, UniProt P28065+P40306); test: Proteasome inhibitory activity, subunit-specific cell lysate IC50, LMP2; format: biochemical; set-up: Subunit-Specific Cell lysate IC50 (μM); endogenous in cells; settings: read-out: Subunit-Specific Cell lysate IC50, LMP2 (β1i)
[2] = system: APPsw transgenic mouse (Tg2576) and LPS-induced mice (ICR strain); test: Morris water maze test in AD mouse models; format: in vivo; settings: FIG. 12A-12D
Description: These two compounds were used to investigate the impacts of LMP2 inhibition on cognitive deficits in two animal models of human Alzheimer's disease (AD). In these AD models, AD develops by Aβ deposition (APPsw transgenic mouse) or lipopolysaccharide (LPS)-induced neuroinflammation. For the APPsw transgenic model, also known as Tg2576, 10-month old APPsw mice were treated i.p. with LMP2 inhibitors twice a week for 3 weeks. […] Once treatments were finished, Morris water maze test was performed. All mice were trained for three times a day for 5 days before the test. The escape latency and distance traveled were recorded on a daily-basis over a 5-day period. […] This supports that the efficacy of LMP2 inhibitors is mediated through LMP2 inhibition. One day after the completion of Morris water maze test, the ability of mouse to maintain memory was evaluated by probe trials. […] Sequentially, a step-through latency test was performed a day after the probe trial. […]
The learning trials were conducted over 5 days, with 4 trials per day, with three randomized starting points. […] Swimming pattern of each mouse was monitored and recorded by a camera mounted above the center of the pool, and the escape latency, escape distance and swimming speed were assessed by the SMART-LD program (Panlab, Spain). […]

LMP2/β1i [3] = target: T1, LMP2/β1i; test: Proteasome activity assay, purified 20S proteasome, Ac-PAL-AMC; format: biochemical; set-up: purchased R&D Systems
Description: (§1) Purified 20S human proteasomes (CP and IP, R&D Systems) were used to assess the in vitro inhibition of proteasome catalytic activity by LMP2 inhibitors. […] Reactions were initiated by the addition of fluorogenic substrates containing the AMC (7-amino-4-methylcoumarin) group. Specifically, the following substrates were used: Suc-LLVY-AMC (CT-L activity, 100 μM), Ac-PAL-AMC (LMP2, 100 μM), Ac-WLA-AMC (β5, 20 μM), Ac-nLPnLD-AMC (β1,100 μM), Ac-RLR-AMC (β2/2i, 20 μM), and Ac-ANW-AMC (β5i, 100 μM). The fluorescence of liberated AMC was measured over a period of 90 min at 360 and 460 nm on a SpectraMax M5 fluorescence plate reader (Molecular Devices). For the proteasome activity of brain tissues isolated from AD mice, tissues were homogenized in RIPA buffer (50 mM Tris Cl, pH 7.4, 150 mM NaCl, 5 mM EDTA, 1% Nonidet P-40, 1% sodium deoxycholate, 0.1% SDS, 1% aprotinin, 50 mM NaF) and sonicated. Samples were centrifuged for 40 min at 14,000×g (4° C.). Protein concentration was determined using the Bradford Assay according to the manufacturer's protocol. Finally, samples were loaded onto a 96-well plate followed by the addition of the substrate (Ac-PAL-AMC) at 37° C. Fluorescence was recorded for 90 min using a Synergy-HT (Bio Tek) plate reader.

[4] = system: Chymotrypsin-like activity (β5/β5i); test: Proteasome inhibitory activity, subunit-specific cell lysate IC50, chymotrypsin-like activity; format: biochemical
LMP7/β5i = target: T2, LMP7/β5i (Homo sapiens, UniProt P20618+P28062); test: Proteasome activity assay, purified 20S proteasome, Ac-ANW-AMC; format: biochemical
T2 construct: purchased R&D Systems
Description: as §1

X/β5 = target: T3, X/β5 (Homo sapiens, UniProt P20618+P28074); test: Proteasome activity assay, purified 20S proteasome, Ac-WLA-AMC; format: biochemical
T3 construct: purchased R&D Systems
Description: Purified 20S human proteasomes (CP and IP, R&D Systems) were used to assess the in vitro inhibition of proteasome catalytic activity by LMP2 inhibitors. In our 96-well format assays involving a 100 μL total volume, 20S proteasomes (0.5 μg/mL) were incubated with inhibitors or reference compounds (e.g., carfilzomib) in assay buffer (20 mM Tris-HCl, 0.5 mM EDTA, 0.035% SDS) at room temperature for 30 min. Reactions were initiated by the addition of fluorogenic substrates containing the AMC (7-amino-4-methylcoumarin) group. Specifically, the following substrates were used: Suc-LLVY-AMC (CT-L activity, 100 μM), Ac-PAL-AMC (LMP2, 100 μM), Ac-WLA-AMC (β5, 20 μM), Ac-nLPnLD-AMC (β1,100 μM), Ac-RLR-AMC (β2/2i, 20 μM), and Ac-ANW-AMC (β5i, 100 μM). The fluorescence of liberated AMC was measured over a period of 90 min at 360 and 460 nm on a SpectraMax M5 fluorescence plate reader (Molecular Devices). For the proteasome activity of brain tissues isolated from AD mice, tissues were homogenized in RIPA buffer (50 mM Tris Cl, pH 7.4, 150 mM NaCl, 5 mM EDTA, 1% Nonidet P-40, 1% sodium deoxycholate, 0.1% SDS, 1% aprotinin, 50 mM NaF) and sonicated. Samples were centrifuged for 40 min at 14,000×g (4° C.). Protein concentration was determined using the Bradford Assay according to the manufacturer's protocol. […] Fluorescence was recorded for 90 min using a Synergy-HT (Bio Tek) plate reader.

IC50 (LMP2/β1i [1]): 80 nM
IC50 (LMP2/β1i [3]): 70 nM
IC50 [4]: > 10000 nM
IC50 (LMP7/β5i): > 10000 nM
IC50 (X/β5): > 10000 nM
Structure (SMILES): CC(C)C[C@H](NC(=O)[C@H](Cc1ccccc1)NC(=O)[C@@H]1CCCN1C(=O)CNC(=O)c1cnccn1)C(=O)[C@@]1(C)CO1 [Analogue 16]
cognitive deficits in the APPsw mice [2]: ameliorates cognitive deficits
